In general, IC50 refers to the concentration that gives 50% inhibition. As usually defined, the MIC is the least concentration at which growth counts as inhibited.

≈ marks a conversion by molar mass, not a printed value. Like-named read-outs stand apart in the source and are kept apart here.

This note sets out measurements from patent EP4745118A1, “HYDROXAMIC ACID COMPOUND OR PHARMACEUTICALLY ACCEPTABLE SALT THEREOF, AND USE THEREOF AND PREPARATION METHOD THEREFOR” (priority 2023, dated 2025).

Experiment [1] addresses T1, recombinant Escherichia coli LpxC enzyme (rLpxC) (Escherichia coli, UniProt P0A725).
T1 sequence (P0A725 1-305): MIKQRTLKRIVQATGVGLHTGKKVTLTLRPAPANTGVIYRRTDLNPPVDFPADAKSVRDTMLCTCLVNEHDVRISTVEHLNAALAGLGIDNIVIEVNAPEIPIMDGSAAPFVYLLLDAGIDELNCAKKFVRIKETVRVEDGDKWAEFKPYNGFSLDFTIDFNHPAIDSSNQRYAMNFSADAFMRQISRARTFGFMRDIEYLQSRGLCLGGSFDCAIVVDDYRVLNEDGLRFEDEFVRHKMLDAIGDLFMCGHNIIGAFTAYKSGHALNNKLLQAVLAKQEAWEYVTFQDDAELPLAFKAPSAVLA
The experiment is described as follows: Inhibition of recombinant Escherichia coli LpxC enzyme activity (LC-MS). In kind it is biochemical. To be noted: 37°C, 30 minutes reaction, substrate UDP-3-O (R-hydroxytetradecanoyl)-N-acetylglucosamine. As for the experimental part:
Preparation of recombinant Escherichia coli LpxC enzyme (rLpxC). 2 µL of recombinant Escherichia coli LpxC enzyme (6.29 mg/mL) was added to 18 µL of distilled water. After thorough mixing, 2 µL of this mixture was added to 1042.4 µL of distilled water and mixed well to prepare a 36 nM working solution.
The substrate was UDP-3-O (R-hydroxytetradecanoyl)-N-acetylglucosamine, with UDP-α-D-N-Acetylglucosamine Disodium Salt as the internal standard. Mobile phase A: 90% water-10% acetonitrile containing 10 mM ammonium acetate; B: acetonitrile.
Reaction system: Corresponding solutions were prepared as per the table below, and placed in a 37°C metal bath, and mixed at 300 rpm for 10 minutes. After mixing for 10 minutes, 10 µl of 250 µM substrate was added to each group to initiate the reaction, and placed in a 37°C metal bath and reacted at 300 rpm for 30 minutes.
Termination solution: 1.1 µL of 1 mM internal standard was added to 2 mL of acetonitrile. 1.5 mL of EP tubes were taken and 100 µL of termination solution was added to each EP tube. The concentration of the internal standard in the final 350 µL system is 100 ng/mL.
Detection: 10 µL of reaction solution was added to 100 µL of the termination solution in an EP tube, mixed thoroughly, and then 240 µL of distilled water was added and mixed well, centrifuged at 14,000 rpm for 5 minutes. 70 µL of supernatant was transferred to an LC-MS vial and API 6500 Qtrap LC-MS system was used to measure substrates and metabolites. The median inhibition concentrations (IC50) of the four optical isomers and ACHN-975 against rLpxC enzyme were calculated. Table 4 Inhibitory activity of 4 optical isomers and control drug against recombinant Escherichia coli LpxC enzyme

In experiment [2] the test system is Escherichia coli ATCC BAA2469 (CRE, NDM-1-producing). Put plainly: In vivo antibacterial activity, intraperitoneal infection in mice (survival over 7 days). To be noted: for effective dose of in vivo antibacterial activity: mice with intraperitoneal infection by Escherichia coli ATCC BAA2469, intravenous; for Animal survival rate / Number of surviving animals: mice, one intravenous administration 1 hour post-infection, 7 days; for Number of surviving animals: 5 animals per group.

In experiment [3] the test system is Enterobacter cloacae. The experiment is described as follows: In vitro antibacterial activity, agar dilution method (MIC). In kind it is cell-based. To be noted: Enterobacter cloacae CDC1000654 (NDM-1-producing); agar dilution, 35°C, 18 hours; read-out: MIC. The procedure, abridged: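 CLSI agar dilution; inoculum ~10^4 CFU per spot from 0.5 McFarland suspension diluted 10-fold. Plates incubated 35°C for 18 h. MIC taken as lowest drug concentration giving no growth.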

Experiment [4] deals with Serratia marcescens. Described as above. The class given is cell-based. To be noted: ATCC21074; Serratia marcescens ATCC 21074; agar dilution, 35°C, 18 hours; read-out: MIC. The procedure, abridged:
(§1)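 Agar dilution per CLSI; ~10^4 CFU/spot (0.5 McF, 1:10 in broth); 35°C, 18 h; MIC = lowest conc. with no growth.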
(In general: In agar dilution, organisms are placed on agar that contains the substance at set levels.)

In experiment [5] the test system is Proteus vulgaris. The description is as above. The class given is cell-based. Particulars: ATCC29905; Proteus vulgaris ATCC 29905; agar dilution, 35°C, 18 hours; read-out: MIC. The procedure, abridged:
as §1

Experiment [6] deals with Citrobacter freundii. Described as above. Particulars: ATCC43864; Citrobacter freundii ATCC 43864; agar dilution, 35°C, 18 hours; read-out: MIC. The class given is cell-based. The procedure, abridged: as §1
The subject of experiment [7] is Klebsiella pneumoniae. Described as above. In kind it is cell-based. To be noted: Klebsiella pneumoniae, agar dilution, 35°C, 18 hours, read-out: MIC. Summed up: as §1
Experiment [8] deals with Escherichia coli. Described as above. The class given is cell-based. Particulars: Escherichia coli, agar dilution, 35°C, 18 hours, read-out: MIC. The procedure, abridged: as §1
Experiment [9] relates to Pseudomonas aeruginosa. The description is as above. Particulars: Pseudomonas aeruginosa PAO1; agar dilution, 35°C, 18 hours; read-out: MIC. In kind it is cell-based. The procedure, abridged:
as §1

Experiment [10] relates to Proteus mirabilis. Described as above. The class given is cell-based. To be noted: ATCC49565; Proteus mirabilis ATCC 49565; agar dilution, 35°C, 18 hours; read-out: MIC. The procedure, abridged:
as §1

For experiment [11], the system named is Enterobacter aerogenes. The description is as above. In kind it is cell-based. To be noted: Klebsiella aerogenes, ATCC13048; Enterobacter aerogenes ATCC 13048; agar dilution, 35°C, 18 hours; read-out: MIC. Summed up: as §1
In experiment [12] the test system is Pantoea agglomerans. Described as above. The class given is cell-based. Particulars: ATCC27993; Pantoea agglomerans ATCC 27993; agar dilution, 35°C, 18 hours; read-out: MIC. The procedure, abridged:
as §1

The mark [13] stands for this setting: 18 h, Klebsiella pneumoniae 09-20 (mcr-1).
Setting [14] is: 18 h, Klebsiella pneumoniae 17-R27 (CRE).
[15] abbreviates: 18 h, Klebsiella pneumoniae 18-8 (ESBLs-producing).
[16] abbreviates: ATCC700603, 18 h, Klebsiella pneumoniae ATCC 700603 (ESBLs-producing).
Setting [17] is: ATCCBAA2146, 18 h, Klebsiella pneumoniae ATCC BAA-2146 (CRE, NDM-1-producing).
The mark [18] stands for this setting: 18 h, Escherichia coli 13-43 (mcr-1).
[19] abbreviates: 18 h, Escherichia coli 17-R28 (CRE, NDM-1-producing).
Setting [20] is: ATCC2469, 18 h, Escherichia coli ATCC 2469 (CRE, NDM-1-producing).
[21] abbreviates: ATCC35218, 18 h, Escherichia coli ATCC 35218 (ESBLs-producing).

In the case of `COC[C@H]1C[C@H]1C#CC#Cc1ccc(C(=O)N[C@H](C(=O)NO)C(C)(C)N)cc1` [Ic, N-(S)-3-amino-1-hydroxyamino-3-methyl-1-oxobutan-2-yl-4-[[(1R,2S)-2-(methoxymethylene)cyclopropyl]but-1,3-diynyl]benzamide], the IC50 in experiment [1] stood at 0.905 nM. In addition, in experiment [2], the “effective dose of in vivo antibacterial activity” value is “below 1.5 mg/kg”. In addition, the Animal survival rate is reported as 0% in experiment [2] (dose 0.35 mg/kg) and 80% in experiment [2] (dose 1.4 mg/kg). Also, the “Number of surviving animals” value in experiment [2] (dose 0.35 mg/kg) is 0 individuals. The MIC in experiment [3] was 1 µg/mL (≈ 2.61 µM); in experiment [4], 0.25 µg/mL (≈ 0.652 µM); in [5], 0.12 µg/mL (≈ 0.313 µM); in experiment [6], 0.25 µg/mL (≈ 0.652 µM); in experiment [7] (setting [13]), 0.25 µg/mL (≈ 0.652 µM); in experiment [7] (setting [14]) it was 0.5 µg/mL (≈ 1.3 µM). The MIC in experiment [7] (setting [15]) was determined as 0.06 µg/mL (≈ 0.156 µM); in experiment [7] (setting [16]), 1 µg/mL (≈ 2.61 µM); in experiment [7] (setting [17]), 2 µg/mL (≈ 5.22 µM); in experiment [8] (setting [18]), 0.25 µg/mL (≈ 0.652 µM); in [8] (setting [19]) it was 0.12 µg/mL (≈ 0.313 µM); in experiment [8] (setting [20]), 0.12 µg/mL (≈ 0.313 µM). Besides, the MIC in experiment [8] (setting [21]) worked out at 0.12 µg/mL (≈ 0.313 µM); in [9], 0.5 µg/mL (≈ 1.3 µM); in [10], 0.5 µg/mL (≈ 1.3 µM); in experiment [11] it was 0.5 µg/mL (≈ 1.3 µM); in experiment [12], 0.5 µg/mL (≈ 1.3 µM).

For `COC[C@@H]1C[C@@H]1C#CC#Cc1ccc(C(=O)N[C@H](C(=O)NO)C(C)(C)N)cc1` [Id, N-(S)-3-amino-1-hydroxyamino-3-methyl-1-oxobutan-2-yl-4-[[(1S,2R)-2-(methoxymethylene)cyclopropyl]but-1,3-diynyl]benzamide], the IC50 in experiment [1] came to 0.892 nM. Further, the “effective dose of in vivo antibacterial activity” value in [2] was “below 1.5 mg/kg”. Moreover, the Animal survival rate in experiment [2] (dose 0.35 mg/kg) is given as 0%; in experiment [2] (dose 0.7 mg/kg), 0%; in experiment [2] (dose 1.4 mg/kg), 60%. In addition, the entries for the “Number of surviving animals” value in [2] (dose 0.35 mg/kg), in experiment [2] (dose 0.7 mg/kg) and in experiment [2] (dose 1.4 mg/kg) were 0 individuals, 0 individuals and 3 individuals, respectively. In addition, the MIC came to 1 µg/mL (≈ 2.61 µM) in experiment [3]; 0.25 µg/mL (≈ 0.652 µM) in experiment [4]; 0.12 µg/mL (≈ 0.313 µM) in experiment [5]; 0.25 µg/mL (≈ 0.652 µM) in [6]; 0.5 µg/mL (≈ 1.3 µM) in experiment [7] (setting [13]); 0.5 µg/mL (≈ 1.3 µM) in experiment [7] (setting [14]). For the same compound, the MIC in experiment [7] (setting [15]) stood at 0.5 µg/mL (≈ 1.3 µM); in [7] (setting [16]), 2 µg/mL (≈ 5.22 µM); in experiment [7] (setting [17]), 2 µg/mL (≈ 5.22 µM); in experiment [8] (setting [18]) it was 0.5 µg/mL (≈ 1.3 µM); in [8] (setting [19]) it was 0.25 µg/mL (≈ 0.652 µM); in experiment [8] (setting [20]) it was 0.25 µg/mL (≈ 0.652 µM). Further, the MIC in experiment [8] (setting [21]) was found to be 0.25 µg/mL (≈ 0.652 µM); in experiment [9], 1 µg/mL (≈ 2.61 µM); in [10], 1 µg/mL (≈ 2.61 µM); in [11] it was 0.5 µg/mL (≈ 1.3 µM); in experiment [12], 1 µg/mL (≈ 2.61 µM).
